In patent publication US6287792A, “Drug delivery of antisense oligonucleotides and peptides to tissues in vivo and to cells using avidin-biotin technology” (The Regents of the University of California, priority 1991, dated 2001):

System: isolated bovine brain capillaries (uptake of avidin-biotin complex)
Test: uptake of the avidin-biotin complex by isolated bovine brain capillaries in vitro
Format: cell-based
Conditions: 50 mM, 23° C., thirty minutes
Method: The in vitro studies were performed with isolated bovine brain capillaries used as an in vitro model of blood brain barrier (BBB) transport (16). […] The modest uptake of radioactivity in the presence of buffer alone represents uptake of [P^32 ] nucleotide or phosphate ion generated by capillary nuclease or phosphatase degradation of the antisense oligonucleotide. All incubations were performed at 23° C. for thirty minutes with brain capillary (about 100 μg protein per flask).

## CO[C@H]1O[C@H](CO)[C@@H](O)[C@H](O)[C@@H]1O [α-methylmannoside]
  inhibition of the uptake of the avidin-biotin complex by brain capillaries: no significant inhibition
